Assay results reported in ChEMBL document CHEMBL1128916, “Phosphoramidate derivatives of d4T with improved anti-HIV efficacy retain full activity in thymidine kinase-deficient cells” (Bioorg Med Chem Lett, 1996).
pEC50: −log10 of the molar value.

Legend:
Details in all cases: Homo sapiens
CCRF-CEM [1] = experiment: Compound was evaluated for the inhibition of HIV replication using HIV-2 infected CEM-TK- cells.; format: functional, cell-based
CCRF-CEM [2] = experiment: Compound was evaluated for the cytotoxic concentration to inhibit HIV replication in CEM cells.; format: functional
CCRF-CEM [3] = experiment: Compound was evaluated for the inhibition of HIV replication using HIV-1 infected CEM cells.; format: functional, cell-based
CCRF-CEM [4] = experiment: Compound was evaluated for the inhibition of HIV replication using HIV-2 infected CEM cells.; format: functional, cell-based

Row | SMILES | pEC50 (CCRF-CEM [1]) | CC50 (CCRF-CEM [2]) [nM] | pEC50 (CCRF-CEM [3]) | pEC50 (CCRF-CEM [4])
1 | COC(=O)C(C)NP(=O)(OC[C@@H]1C=C[C@H](n2cc(C)c(=O)[nH]c2=O)O1)Oc1ccccc1 (stereo partly specified) | 7.12 | > 100000 | 7.07 | 6.99
2 | Cc1cn(C2C=CC(COP(=O)(NC(C)C(=O)OCc3ccccc3)Oc3ccccc3)O2)c(=O)[nH]c1=O (stereo unspecified) | 7.22 | 52000 | 7.66 | 7.41
3 | Cc1cn([C@H]2C=C[C@@H](CO)O2)c(=O)[nH]c1=O [STAVUDINE] | 4.60 | > 100000 | 6.80 | 6.57
4 | Cc1cn([C@H]2C[C@H](N=[N+]=[N-])[C@@H](CO)O2)c(=O)[nH]c1=O [ZIDOVUDINE] | < 4.00 | > 100000 | 8.30 | 8.10
